Patent publication US20180272034A1, “USE OF CSA COMPOUNDS TO PREVENT MICROBIAL BUILD-UP OR FOULING OF MEDICAL IMPLANTS” (BRIGHAM YOUNG UNIVERSITY, priority 2017, published 2018)

What was measured:
[1] = test system: Staphylococcus aureus; conditions: mixed-species biofilms grown 22 hours, 20 hours of treatment
Experimental: (§1) Several CSA compounds were tested against Pseudomonas aeruginosa and Staphylococcus aureus mixed-species biofilms grown for an initial 22 hours and subjected to 20 hours of treatment.

[2] = test system: Pseudomonas aeruginosa; conditions: mixed-species biofilms grown 22 hours, 20 hours of treatment
Experimental: as §1

[3] = test system: Staphylococcus aureus MRSA; experiment: Log10 reduction, coated PVC endotracheal tube segments and media; format: cell-based; conditions: CSA-131 polymer coating about 39.4 μg/cm^2 vs uncoated, 24 hours
Experimental: (§2) Segments of polyvinyl chloride (PVC) endotracheal tubes measuring 3 cm in length were placed in wells of a 6 well plate. 7 ml of inoculum were placed in each well. Testing was repeated in triplicate for each test article. The samples were placed on a rotary shaker (110 revolutions per minute) and incubated at 37±2° C. for 24 hours. At the end of 24 hours the bacteria in the inoculum were characterized via serial dilution, plating, and counting. The endotracheal tube segment was also removed and neutralized. After neutralization, the adherent biofilm biomass was removed and characterized via serial dilution, plating, and counting.
(§3) As the number of viable organisms recovered from the treated catheters is expected to be low, a membrane filtration method provides an appropriate analysis for counting recovered organisms. The remaining recovery solution was filtered through a 0.45 μm filter membrane. Filters were placed on TSA/SDA/NA/TSBA plates and incubated at 37±2° C. and counted after sufficient incubation.
(§4) The log reduction is calculated by determining the Log10 difference between uncoated devices and associated media and coated devices (using a polymer coating including CSA-131 at about 39.4 μg/cm^2) and associated media. The log reduction is calculated as follows:
(§5) Log reduction(Media)=Control Log10(CFU/ml)−Test Log10(CFU/ml)
(§6) Log10(CFU/ml)=Log10(CFU/ml+1)
(§7) Log reduction(Device)=Control Log10(CFU/device)−Test Log10(CFU/device)
(§8) Log10(CFU/device)=Log10(CFU/device+1)

[4] = test system: Pseudomonas aeruginosa; experiment: as above; format: cell-based; conditions: CSA-131 polymer coating about 39.4 μg/cm^2 vs uncoated, 24 hours
Experimental: as §2, §3, §4, §5, §6, §7, §8

[5] = test system: Klebsiella pneumonia; experiment: as above; format: cell-based; conditions: CSA-131 polymer coating about 39.4 μg/cm^2 vs uncoated, 24 hours
Experimental: as §2, §3, §4, §5, §6, §7, §8

[6] = Pre-term lambs intubated with coated endotracheal tubes, tracheal mucosal integrity; format: in vivo
Text: Pre-term lambs were intubated using endotracheal tubes (ETTs) including a coating having CSA-131. Tracheal mucosal integrity of the lambs was compared to the tracheal mucosal integrity of a control group (intubated with uncoated ETTs). […] FIG. 2 illustrates the histological appearance of tracheas of the premature lambs that were intubated for three days. […] An area of denuded epithelium (arrowhead), and accumulation of white blood cells (arrow) are highlighted.

[7] = test system: All (74) clinical isolates; experiment: Broth microdilution MIC, HABP/VABP clinical isolates; format: cell-based
Experimental: (§9) CSA-131 was tested in vitro against a set of clinical isolates representing bacterial species commonly associated with hospital-acquired bacterial pneumonia (HABP) or ventilator-associated bacterial pneumonia (VABP). Antimicrobial susceptibility testing for 74 clinical isolates was performed. Broth microdilution using frozen-form MIC panels consisted of three media types: cation-adjusted Mueller-Hinton broth (CA-HMB), CA-HMB supplemented with 2.5-5% lysed horse blood for S. pneumoniae and Haemophilus test media (HTM) for Haemophilus spp.

[8] = test system: Streptococcus Pneumoniae; experiment: as above; format: cell-based; conditions: Streptococcus Pneumoniae (10)
Experimental: as §9

[9] = test system: Enterobacteriaceae; experiment: as above; format: cell-based; conditions: Enterobacteriaceae (22)
Experimental: as §9

[10] = test system: Staphylococcus aureus; experiment: as above; format: cell-based; conditions: Staphylococcus aureus (10)
Experimental: as §9

[11] = test system: Haemophilus spp.; experiment: as above; format: cell-based
Experimental: as §9

[12] = test system: Non-fermenters; experiment: as above; format: cell-based, A. baumannii species complex, P. aeruginosa, S. maltophilia; conditions: Non-fermenters (22)
Experimental: as §9

Compound: CCCCCCCCCCCCNCCC[C@@H](C)[C@H]1CC[C@H]2[C@@H]3[C@H](OCCCN)C[C@@H]4C[C@H](OCCCN)CC[C@]4(C)[C@H]3C[C@H](OCCCN)[C@]12C.Cl.Cl.Cl.Cl [CSA-131]
- MBC S. aureus [1]: 1.56 µg/mL
- MIC S. aureus [1]: 0.78 µg/mL
- MBC P. aeruginosa [2]: 3.125 µg/mL
- MIC P. aeruginosa [2]: 3.125 µg/mL
- Log10 Reduction Device ([3]; 399 (clinical)): 6.24
- Log10 Reduction Media ([3]; 399 (clinical)): 8.89
- Log10 Reduction Total ([3]; 399 (clinical)): 8.23
- Log10 Reduction Device ([3]; 456 (clinical)): 6.77
- Log10 Reduction Media ([3]; 456 (clinical)): 9.63
- Log10 Reduction Total ([3]; 456 (clinical)): 9.63
- Log10 Reduction Device ([3]; U of C #18 (clinical)): 5.92
- Log10 Reduction Media ([3]; U of C #18 (clinical)): 9.36
- Log10 Reduction Total ([3]; U of C #18 (clinical)): 8.44
- Log10 Reduction Device ([4]; ATCC 10752 (clinical)): 7.32
- Log10 Reduction Media ([4]; ATCC 10752 (clinical)): 9.86
- Log10 Reduction Total ([4]; ATCC 10752 (clinical)): 9.58
- Log10 Reduction Device ([4]; ATCC 27853): 7.58
- Log10 Reduction Media ([4]; ATCC 27853): 9.15
- Log10 Reduction Total ([4]; ATCC 27853): 8.62
- Log10 Reduction Device ([4]; PA14 (clinical)): 5.81
- Log10 Reduction Media ([4]; PA14 (clinical)): 7.24
- Log10 Reduction Total ([4]; PA14 (clinical)): 7.00
- Log10 Reduction Device ([5]; 06-0140-M4505): 5.21
- Log10 Reduction Media ([5]; 06-0140-M4505): 9.49
- Log10 Reduction Total ([5]; 06-0140-M4505): 7.85
- Log10 Reduction Device ([5]; 4352 (clinical)): 4.91
- Log10 Reduction Media ([5]; 4352 (clinical)): 6.56
- Log10 Reduction Total ([5]; 4352 (clinical)): 7.70
- Log10 Reduction Device ([5]; ATCC 29011): 3.80
- Log10 Reduction Media ([5]; ATCC 29011): 6.76
- Log10 Reduction Total ([5]; ATCC 29011): 6.82
- tracheal mucosal integrity vs control group (uncoated ETTs) ([6]; pre-term lambs intubated with ETTs coated with CSA-131 coating): markedly improved mucosal integrity
- histological appearance of trachea (FIG. 2, image b) ([6]; premature lambs intubated for three days, CSA-131 coated ETT): the epithelium is healthy and intact, and the subjacent connective tissue region is not inflamed
- MIC50 [7]: 4 µg/mL
- MIC90 [7]: 8 µg/mL
- No. of isolates at MIC 2 μg/ml [7]: 23
- No. of isolates at MIC 4 μg/ml [7]: 40
- No. of isolates at MIC 8 μg/ml [7]: 11
- cumulative % inhibited at 2 μg/ml [7]: 31.1%
- cumulative % inhibited at 4 μg/ml [7]: 85.1%
- cumulative % inhibited at 8 μg/ml [7]: 100%
- MIC50 [8]: 4 µg/mL
- MIC90 [8]: 4 µg/mL
- No. of isolates at MIC 2 μg/ml [8]: 0 (0%)
- No. of isolates at MIC 4 μg/ml [8]: 10
- No. of isolates at MIC 8 μg/ml [8]: 0
- cumulative % inhibited at 2 μg/ml [8]: 0 (0%)
- cumulative % inhibited at 4 μg/ml [8]: 100%
- cumulative % inhibited at 8 μg/ml [8]: 100%
- MIC50 [9]: 4 µg/mL
- MIC90 [9]: 4 µg/mL
- No. of isolates at MIC 2 μg/ml [9]: 4
- No. of isolates at MIC 4 μg/ml [9]: 18
- No. of isolates at MIC 8 μg/ml [9]: 0
- cumulative % inhibited at 2 μg/ml [9]: 18.2%
- cumulative % inhibited at 4 μg/ml [9]: 100%
- cumulative % inhibited at 8 μg/ml [9]: 100%
- MIC50 [10]: 2 µg/mL
- MIC90 [10]: 2 µg/mL
- No. of isolates at MIC 2 μg/ml [10]: 10
- No. of isolates at MIC 4 μg/ml [10]: 0
- No. of isolates at MIC 8 μg/ml [10]: 0
- cumulative % inhibited at 2 μg/ml [10]: 100%
- cumulative % inhibited at 4 μg/ml [10]: 100%
- cumulative % inhibited at 8 μg/ml [10]: 100%
- MIC50 ([11]; Haemophilus spp. (10)): 8 µg/mL
- MIC90 ([11]; Haemophilus spp. (10)): 8 µg/mL
- No. of isolates at MIC 4 μg/ml ([11]; Haemophilus spp. (10)): 0 (0%)
- No. of isolates at MIC 8 μg/ml ([11]; Haemophilus spp. (10)): 10
- cumulative % inhibited at 2 μg/ml ([11]; Haemophilus spp. (10)): 0 (0%)
- cumulative % inhibited at 4 μg/ml ([11]; Haemophilus spp. (10)): 0 (0%)
- cumulative % inhibited at 8 μg/ml ([11]; Haemophilus spp. (10)): 100%
- No. of isolates at MIC 2 μg/ml ([11]; Haemophilus spp. (10): 8 H. influenza, 2 H. parainfluenzae): 0 (0%)
- MIC50 [12]: 4 µg/mL
- MIC90 [12]: 4 µg/mL
- No. of isolates at MIC 2 μg/ml [12]: 9
- No. of isolates at MIC 4 μg/ml [12]: 12
- No. of isolates at MIC 8 μg/ml [12]: 1
- cumulative % inhibited at 2 μg/ml [12]: 40.9%
- cumulative % inhibited at 4 μg/ml [12]: 95.5%
- cumulative % inhibited at 8 μg/ml [12]: 100%
